Data on two compounds can be found in ChEMBL document CHEMBL3865848, “Macrocyclic Inhibitors of ERK2 Kinase” (ACS Med Chem Lett, 2016).

pIC50: −log10 of the molar value.

The target in the test is Mitogen-activated protein kinase 1 (Homo sapiens, UniProt P28482).
Mitogen-activated protein kinase 1, sequence (P28482 whole entry): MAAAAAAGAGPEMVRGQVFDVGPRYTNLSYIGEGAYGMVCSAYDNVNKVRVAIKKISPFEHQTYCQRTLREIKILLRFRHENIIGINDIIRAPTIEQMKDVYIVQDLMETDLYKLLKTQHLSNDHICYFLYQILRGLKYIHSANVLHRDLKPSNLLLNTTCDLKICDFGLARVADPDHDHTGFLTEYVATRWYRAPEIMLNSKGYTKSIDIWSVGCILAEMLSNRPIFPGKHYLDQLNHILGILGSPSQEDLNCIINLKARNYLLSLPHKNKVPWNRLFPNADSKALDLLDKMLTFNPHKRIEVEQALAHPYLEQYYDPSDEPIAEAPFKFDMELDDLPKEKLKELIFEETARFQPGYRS

Description: Inhibition of human activated ERK2 assessed as reduction in phosphorylation activity preincubated for 15 mins followed by addition of IMAP peptide as substrate and ATP measured after 60 mins by fluorescence polarization method

`CCn1ncc2cc3nc(c21)CCCO[C@@H](O)[C@H](c1ccccc1)NC(=O)N3`: the pIC50 is 6.93. In the case of `CCn1ncc2cc3nc(c21)CCCO[C@H](O)[C@H](c1ccccc1)NC(=O)N3` it was 7.61.
